Like-named read-outs stand apart in the source and are kept apart here.
How the values were obtained:
firefly luciferase [1] = molecular target: T1, firefly luciferase (Photinus pyralis, UniProt P08659); test: biochemical; settings: for remaining activity at 0.5 %: read-out: Retained Firefly Luciferase Luminescence (%)
Method: (§1) The retained luminescence for each luciferase was calculated by dividing the luminescence in the presence of the detergent by the luminescence in the absence of the test detergent. The selectivity value for each of the test detergents was determined by dividing the retained firefly luciferase luminescence by the retained Renilla luciferase luminescence.
(§2) A set of detergents (Table 2; Sigma-Aldrich) was added at 0.5% (from a 5% or 10% stock solution) to either Luciferase Assay Reagent (Promega) or Renilla Luciferase Assay Reagent (Promega) and allowed to equilibrate at room temperature.
(§3) The firefly luciferase and Renilla luciferase enzymes were diluted as follows. Firefly luciferase was diluted to 14 ng/ml in Phosphate Buffered Saline (PBS) containing 0.1% of the protein carrier Prionex® (Pentapharm). Renilla luciferase was diluted to 10 ng/ml in 1× Renilla Luciferase Lysis Buffer (Promega) containing 0.1% Prionex®. The Renilla Luciferase Lysis Buffer […] detergent micelles when using the Renilla Luciferase Assay Reagent. In the absence of other detergents, this prevents sequestering of coelenterazine which inhibits Renilla luciferase-mediated luminescence.
(§4) The luciferase reactions were initiated by adding 40 μl of either the firefly or Renilla luciferase enzyme solution to 200 μl of the appropriate reagent solution (firefly luciferase enzyme solution+firefly luciferase reagent solution or Renilla luciferase enzyme solution+Renilla luciferase reagent solution, respectively). The reactions were performed in an opaque white, 96-well plate and luminescence was measured for 0.5 seconds per well using a Turner BioSystems Veritas™ Microplate luminometer. The retained firefly luciferase and Renilla luciferase luminescence, as well as the selectivity values for each detergent, were calculated (Table 2).

Renilla luciferase [2] = molecular target: T2, Renilla luciferase (Renilla reniformis, UniProt P27652); test: biochemical; type: biochemical; settings: for remaining activity at 0.5 %: read-out: Retained Renilla Luciferase Luminescence (%)
T2 sequence (P27652 1-311): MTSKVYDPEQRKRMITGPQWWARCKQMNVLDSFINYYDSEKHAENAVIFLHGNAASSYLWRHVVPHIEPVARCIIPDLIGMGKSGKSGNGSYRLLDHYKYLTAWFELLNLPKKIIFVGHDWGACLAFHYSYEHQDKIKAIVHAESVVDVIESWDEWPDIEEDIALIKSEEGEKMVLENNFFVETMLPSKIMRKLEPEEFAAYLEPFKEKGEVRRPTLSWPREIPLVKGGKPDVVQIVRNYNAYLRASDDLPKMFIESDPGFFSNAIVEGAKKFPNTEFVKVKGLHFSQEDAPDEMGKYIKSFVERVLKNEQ
Method: as §1, §2, §3, §4

firefly luciferase [3] = molecular target: T1, firefly luciferase; test: Quaternary ammonium/phosphonium detergent screen, firefly luciferase (Example 5); type: biochemical; settings: Tergitol NP-9 present
Method: (§5) Each detergent was added at 0.2% to a reagent solution containing 50 mM Tricine pH 8.3, 3.5 mM MgSO4, 1 mM CDTA, 30 mM thiourea and 0.5% Tergitol NP-9. This solution or one not containing a detergent inhibitor was used to resuspend the Bright-Glo™ luciferin substrate (Promega).
(§6) The luciferase reactions were initiated by adding 100 μl of the firefly luciferase or Renilla luciferase enzyme solutions to 100 μl of reagent solution. The reactions were performed as described above. […] The detergent concentrations listed refer to the final concentration in the reaction.

Renilla luciferase [4] = molecular target: T2, Renilla luciferase; test: Quaternary ammonium/phosphonium detergent screen, Renilla luciferase (Example 5); type: biochemical; settings: for remaining activity at 0.1 % / Retained Renilla Luciferase Luminescence (%): Tergitol NP-9 present
Method: as §5, §6

firefly luciferase [5] = molecular target: T1, firefly luciferase; test: Quaternary ammonium/phosphonium detergent screen, firefly luciferase (Example 5); type: biochemical; settings: final conc. 0.03% detergent, Tergitol NP-9 present; for remaining activity at 0.03 %: read-out: Retained Firefly Luciferase Luminescence (%)
Renilla luciferase [6] = molecular target: T2, Renilla luciferase; test: Quaternary ammonium/phosphonium detergent screen, Renilla luciferase (Example 5); type: biochemical; settings: final conc. 0.03% detergent; for remaining activity at 0.03 % / Retained Renilla Luciferase Luminescence (%): Tergitol NP-9 present; for remaining activity at 0.03 %: read-out: Retained Renilla Luciferase Luminescence (%)
[7] = 0.5% detergent in Luciferase Assay Reagent
[8] = 0.5% detergent in Renilla Luciferase Assay Reagent
[9] = retained firefly / retained Renilla, 0.5% detergent
[10] = final conc. 0.10% detergent, read-out: Retained Firefly Luciferase Luminescence (%)
[11] = final conc. 0.10% detergent, read-out: Retained Renilla Luciferase Luminescence (%)

T1 sequence (P08659 whole entry): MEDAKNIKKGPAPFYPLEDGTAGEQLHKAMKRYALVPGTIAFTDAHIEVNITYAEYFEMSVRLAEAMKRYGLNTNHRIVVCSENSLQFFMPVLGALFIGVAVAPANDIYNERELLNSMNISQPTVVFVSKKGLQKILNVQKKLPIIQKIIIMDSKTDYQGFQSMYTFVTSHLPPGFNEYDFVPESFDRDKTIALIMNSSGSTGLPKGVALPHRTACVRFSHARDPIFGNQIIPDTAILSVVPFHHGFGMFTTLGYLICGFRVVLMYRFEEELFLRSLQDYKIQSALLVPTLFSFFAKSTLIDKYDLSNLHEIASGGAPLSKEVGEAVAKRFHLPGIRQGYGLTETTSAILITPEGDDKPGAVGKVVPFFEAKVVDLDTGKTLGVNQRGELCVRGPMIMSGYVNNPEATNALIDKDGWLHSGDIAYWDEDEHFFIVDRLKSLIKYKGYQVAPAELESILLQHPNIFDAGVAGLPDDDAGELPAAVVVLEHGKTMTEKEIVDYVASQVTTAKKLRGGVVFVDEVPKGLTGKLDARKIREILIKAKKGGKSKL

Compound: s-Acetylthiochloline bromide
- Retained Firefly Luciferase Luminescence (%) (firefly luciferase [1]; [7]): 70.97%
- Retained Renilla Luciferase Luminescence (%) (Renilla luciferase [2]; [8]): 90.65%
- Selectivity Value (Renilla luciferase [2]; [9]): 0.8

Compound: C[C@H](CCC(=O)NCCC[N+](C)(C)CCCS(=O)(=O)[O-])[C@H]1CC[C@H]2[C@@H]3[C@H](O)C[C@@H]4C[C@H](O)CC[C@]4(C)[C@H]3C[C@H](O)[C@]12C [CHAPS]
- Retained Firefly Luciferase Luminescence (%) (firefly luciferase [1]; [7]): 73.84%
- Retained Renilla Luciferase Luminescence (%) (Renilla luciferase [2]; [8]): 47.29%
- Selectivity Value (Renilla luciferase [2]; [9]): 1.6

Compound: Tergitol NP-9
- Retained Firefly Luciferase Luminescence (%) (firefly luciferase [1]; [7]): 79.16%
- Retained Renilla Luciferase Luminescence (%) (Renilla luciferase [2]): 27.14%
- Selectivity Value (Renilla luciferase [2]): 2.9

Compound: Sodium deoxycholate
- Retained Firefly Luciferase Luminescence (%) (firefly luciferase [1]; [7]): 39.75%
- Retained Renilla Luciferase Luminescence (%) (Renilla luciferase [2]; [8]): 60.64%
- Selectivity Value (Renilla luciferase [2]; [9]): 0.7

Compound: C[C@H](CCC(=O)NCCS(=O)(=O)O)[C@H]1CC[C@H]2[C@@H]3CC[C@@H]4C[C@H](O)CC[C@]4(C)[C@H]3CC[C@]12C [Taurolithocholic acid]
- remaining activity at 0.5 % (firefly luciferase [1]; [7]): 81.3%
- remaining activity at 0.5 % (Renilla luciferase [2]; [8]): 75%
- Selectivity Value (Renilla luciferase [2]; [9]): 1.1

Compound: Decamthonium bromide
- Retained Firefly Luciferase Luminescence (%) (firefly luciferase [1]; [7]): 85.42%
- Retained Renilla Luciferase Luminescence (%) (Renilla luciferase [2]; [8]): 76.68%
- Selectivity Value (Renilla luciferase [2]; [9]): 1.1

Compound: C[N+](C)(C)CCCCCC[N+](C)(C)C [Hexamethonium bromide]
- remaining activity at 0.5 % (firefly luciferase [1]; [7]): 96%
- remaining activity at 0.5 % (Renilla luciferase [2]; [8]): 91%
- Selectivity Value (Renilla luciferase [2]; [9]): 1.1

Compound: [Br-].c1ccc([P+](c2ccccc2)(c2ccccc2)c2ccccc2)cc1 [Tetraphenylphosphonium bromide]
- remaining activity at 0.5 % (firefly luciferase [1]; [7]): 90.9%
- remaining activity at 0.5 % (Renilla luciferase [2]; [8]): 24.5%
- Selectivity Value (Renilla luciferase [2]; [9]): 3.7

Compound: C[C@H](CCC(=O)NCCC[N+](C)(C)CC(O)CS(=O)(=O)[O-])[C@H]1CC[C@H]2[C@@H]3[C@H](O)C[C@@H]4C[C@H](O)CC[C@]4(C)[C@H]3C[C@H](O)[C@]12C (stereo partly drawn) [CHAPSO]
- Retained Firefly Luciferase Luminescence (%) (firefly luciferase [1]; [7]): 70.07%
- Retained Renilla Luciferase Luminescence (%) (Renilla luciferase [2]; [8]): 52.15%
- Selectivity Value (Renilla luciferase [2]; [9]): 1.3

Compound: C[N+](C)(C)CCBr.[Br-] [(2-Bromoethyl)trimethylammonium bromide]
- remaining activity at 0.5 % (firefly luciferase [1]): 91.4%
- remaining activity at 0.5 % (Renilla luciferase [2]): 78.4%
- Selectivity Value (Renilla luciferase [2]; [9]): 1.2

Compound: C[N+](C)(C)CCCBr.[Br-] [(3-Bromopropyl)trimethylammonium bromide]
- remaining activity at 0.5 % (firefly luciferase [1]; [7]): 72.2%
- remaining activity at 0.5 % (Renilla luciferase [2]; [8]): 71.6%
- Selectivity Value (Renilla luciferase [2]; [9]): 1.0

Compound: CCCCCCCCCC[N+](C)(C)Cc1ccccc1.[Cl-] [Benzyldimethyldecylammonium chloride]
- remaining activity at 0.1 % (firefly luciferase [3]; [10]): 112%
- Selectivity Value (Renilla luciferase [4]; final conc. 0.10% detergent): 112
- remaining activity at 0.1 % (Renilla luciferase [4]; [11]): 1%
- remaining activity at 0.03 % (firefly luciferase [5]): 114%
- Selectivity Value (Renilla luciferase [6]): 6.3
- remaining activity at 0.03 % (Renilla luciferase [6]): 18%

Compound: C[P+](C)(Cc1ccc([N+](=O)[O-])cc1)c1ccccc1.[Br-] [Dimethyl(4-nitrobenzyl)phenylphosphonium bromide]
- remaining activity at 0.1 % (firefly luciferase [3]; [10]): 106%
- Selectivity Value (Renilla luciferase [4]; final conc. 0.10% detergent): 2.2
- remaining activity at 0.1 % (Renilla luciferase [4]; [11]): 49%
- remaining activity at 0.03 % (firefly luciferase [5]): 99%
- Selectivity Value (Renilla luciferase [6]): 1.3
- remaining activity at 0.03 % (Renilla luciferase [6]): 78%

Compound: CCCCCCCCCCC(C(=O)c1ccc(OC)cc1)[N+](C)(C)C.[Br-] (stereo not drawn) [(1-(4-methoxybenzoyl)-undecyl)-trimethylammonium bromide]
- remaining activity at 0.1 % (firefly luciferase [3]; [10]): 104%
- Selectivity Value (Renilla luciferase [4]; final conc. 0.10% detergent): 52
- remaining activity at 0.1 % (Renilla luciferase [4]; [11]): 2%
- remaining activity at 0.03 % (firefly luciferase [5]): 106%
- Selectivity Value (Renilla luciferase [6]): 5.3
- remaining activity at 0.03 % (Renilla luciferase [6]): 20%

Compound: CCCCCCCC[N+](CCCCCCCC)(CCCCCCCC)CCCCCCCC.[Br-] [Tetraoctylammonium bromide]
- remaining activity at 0.5 % (firefly luciferase [1]; [7]): 43.7%
- remaining activity at 0.5 % (Renilla luciferase [2]; [8]): 43.1%
- Selectivity Value (Renilla luciferase [2]; [9]): 1.0

Compound: CCCCCCCCCC[N+](C)(C)CCCS(=O)(=O)[O-] [Zwittergent 3-10]
- Retained Firefly Luciferase Luminescence (%) (firefly luciferase [1]; [7]): 73.92%
- Retained Renilla Luciferase Luminescence (%) (Renilla luciferase [2]; [8]): 33.45%
- Selectivity Value (Renilla luciferase [2]; [9]): 2.2

Compound: Benzalkonium
- Retained Firefly Luciferase Luminescence (%) (firefly luciferase [1]; [7]): 0.20%
- Retained Renilla Luciferase Luminescence (%) (Renilla luciferase [2]; [8]): 0.04%
- Selectivity Value (Renilla luciferase [2]; [9]): 5.0

Compound: CCCC[P+](CCCC)(CCCC)Cc1ccc(C)cc1.[Cl-] [(4-Methylbenzyl)tributylphosphonium chloride]
- remaining activity at 0.1 % (firefly luciferase [3]; [10]): 106%
- Selectivity Value (Renilla luciferase [4]; final conc. 0.10% detergent): 3.3
- remaining activity at 0.1 % (Renilla luciferase [4]; [11]): 32%
- remaining activity at 0.03 % (firefly luciferase [5]): 99%
- Selectivity Value (Renilla luciferase [6]): 1.5
- remaining activity at 0.03 % (Renilla luciferase [6]): 65%

Compound: C[N+](C)(C)CCCCCBr.[Br-] [(5-Bromopentyl)trimethylammonium bromide]
- remaining activity at 0.5 % (firefly luciferase [1]; [7]): 79.1%
- remaining activity at 0.5 % (Renilla luciferase [2]; [8]): 75%
- Selectivity Value (Renilla luciferase [2]; [9]): 1.1

Compound: C[N+](C)(Cc1ccccc1)c1ccccc1.[Cl-] [Benzyldimethylphenylammonium chloride]
- Retained Firefly Luciferase Luminescence (%) (firefly luciferase [3]; final conc. 0.10% detergent): 55%
- Selectivity Value (Renilla luciferase [4]; final conc. 0.10% detergent): 4.6
- Retained Renilla Luciferase Luminescence (%) (Renilla luciferase [4]; final conc. 0.10% detergent): 12%
- remaining activity at 0.03 % (firefly luciferase [5]): 82%
- Selectivity Value (Renilla luciferase [6]): 2.2
- Retained Renilla Luciferase Luminescence (%) (Renilla luciferase [6]): 38%

Compound: C[P+](CCCC(=O)O)(c1ccccc1)c1ccccc1.[Cl-] [(3-Carboxyl-propyl)-methyl-diphenyl-phosphonium chloride]
- remaining activity at 0.1 % (firefly luciferase [3]; read-out: Retained Firefly Luciferase Luminescence (%), final conc. 0.10% detergent): 102%
- Selectivity Value (Renilla luciferase [4]; final conc. 0.10% detergent): 0.9
- remaining activity at 0.1 % (Renilla luciferase [4]; read-out: Retained Renilla Luciferase Luminescence (%), final conc. 0.10% detergent): 89%
- remaining activity at 0.03 % (firefly luciferase [5]): 98%
- Selectivity Value (Renilla luciferase [6]): 1.0
- remaining activity at 0.03 % (Renilla luciferase [6]): 99%

Compound: CC=CC[P+](Cc1ccccc1)(c1ccccc1)c1ccccc1.[Br-] [Benzyl-but-2-enyl-diphenyl-phosphonium bromide]
- remaining activity at 0.1 % (firefly luciferase [3]; [10]): 109%
- Selectivity Value (Renilla luciferase [4]; final conc. 0.10% detergent): 7.8
- remaining activity at 0.1 % (Renilla luciferase [4]; [11]): 14%
- remaining activity at 0.03 % (firefly luciferase [5]): 106%
- Selectivity Value (Renilla luciferase [6]): 2.1
- remaining activity at 0.03 % (Renilla luciferase [6]): 50%

Compound: CC1(C)C=Cc2ccccc2[N+]1(C)C.[I-] [1,1,2,2-Tetramethyl-1,2-dihydor-quinolynium iodide]
- Retained Firefly Luciferase Luminescence (%) (firefly luciferase [3]; final conc. 0.10% detergent): 74%
- Selectivity Value (Renilla luciferase [4]; final conc. 0.10% detergent): 1.2
- Retained Renilla Luciferase Luminescence (%) (Renilla luciferase [4]; final conc. 0.10% detergent): 89%
- Retained Firefly Luciferase Luminescence (%) (firefly luciferase [5]): 87%
- Selectivity Value (Renilla luciferase [6]): 1.0
- Retained Renilla Luciferase Luminescence (%) (Renilla luciferase [6]): 88%

Reference: patent US20080248511A1, “METHODS TO QUENCH LIGHT FROM OPTICAL REACTIONS” (priority 2007, published 2008)
